# Data published in paper PMC5078989, “Targeted inhibition of the COP9 signalosome for treatment of cancer” (Nature Communications, 2016).
# Tested on: panel of cancer cell lines
# Assay: Cell viability (CellTiter-Glo) dose-response across cancer cell line panel;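 for EC50: after 72 h compound incubation with CellTiter-Glo ATP readout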
# Assay type: cell-based, human
# Conditions: for EC50: Homo sapiens
# Source text: Next, we explored the effect of CSN5 inhibition on the viability of cancer cells. To obtain a comprehensive picture, we generated dose–response curves with a CSN5 inhibitor across more than 500 cancer cell lines in a previously described standardized setting[47] (Supplementary Data 1).
# A standardized CellTiter-Glo Assay (Promega #G7570) based on the quantification of ATP was applied according to the manufacturer's protocol to measure the amount of viable cells in culture. In brief, cells were seeded into 384-well plates at optimal density for each cell line. After 4 h, compounds were added at different concentrations in growth medium and incubated for another 72 h in a humidifying chamber at 37 °C and 5% CO2. […] EC50 values were calculated from the plot of percentage of inhibition versus inhibitor concentration using the nonlinear regression analysis software Origin 7.5SR6 (OriginLab Corp.).
smiles,measurement,setting,value
"COCc1ccccc1NCc1ccc([C@@H]2[C@H](O)CCCc3cncn32)c(-c2ccccc2Cl)c1 [CSN5i-2e, (5R,6R)-5-(2′-chloro-5-(((2-(methoxymethyl)phenyl)amino)methyl)-[1,1′-biphenyl]-2-yl)-6,7,8,9-tetrahydro-5H-imidazo[1,5-a]azepin-6-ol]",AMAX,59M cells,-44.1889
same,AMAX,92.1 cells,-96.1867
same,AMAX,A101D cells,-85.3496
same,AMAX,A2780 cells,-96.2609
same,AMAX,A-704 cells,-60.7987
same,AMAX,ABC-1 cells,-95.9302
same,AMAX,AM-38 cells,-94.7284
same,AMAX,AsPC-1 cells,-87.4169
same,AMAX,BFTC-909 cells,-56.5002
same,AMAX,BICR 6 cells,-77.6622
same,AMAX,BICR 16 cells,-89.8558
same,AMAX,Calu-6 cells,-67.9674
same,AMAX,DU4475 cells,-97.6355
same,AMAX,EFM-192A cells,-84.5576
same,AMAX,FaDu cells,-85.1498
same,AMAX,GP2d cells,-5.479
same,AMAX,HARA cells,-90.816
same,AMAX,HCC1143 cells,-51.336
same,AMAX,HCC1187 cells,-85.4618
same,AMAX,HD-MY-Z cells,-75.4546
same,AMAX,HEC-151 cells,-93.7534
same,AMAX,HEL cells,-96.2302
same,AMAX,HL-60 cells,-99.3648
same,AMAX,HLC-1 cells,-73.0832
same,AMAX,HLE cells,-72.0117
same,AMAX,HLF cells,-45.3286
same,AMAX,HSC-4 cells,-74.8911
same,AMAX,HT-29 cells,-73.0471
same,AMAX,HUP-T4 cells,-52.1939
same,AMAX,Hep3B cells,-93.3733
same,EC50,"59M, 59M cells",> 30 µM
same,EC50,92.1 cells,14.4 µM
same,EC50,"639-V, 639-V cells",23 µM
same,EC50,697 cells,9.5 µM
same,EC50,"769-P, 769-P cells",12.8 µM
same,EC50,"786-0, 786-O cells",6.26 µM
same,EC50,"1321-N1, 1321N1 cells",12.9 µM
same,EC50,"8505C, 8505C cells",8.9 µM
same,EC50,A4/Fuk cells,14.5 µM
same,EC50,"A101D, A101D cells",9.82 µM
same,EC50,"A204, A-204 cells",15.2 µM
same,EC50,"A498, A-498 cells",13.7 µM
same,EC50,"A549, A549 cells",10.6 µM
same,EC50,"A673, A-673 cells",14.4 µM
same,EC50,"A2058, A2058 cells",23.5 µM
same,EC50,"A2780, A2780 cells",8.53 µM
same,EC50,"A-375, A-375 cells",10.4 µM
same,EC50,"ABC-1, ABC-1 cells",3.6 µM
same,EC50,"ACC-MESO-1, ACC-MESO-1 cells",> 30 µM
same,EC50,"AM-38, AM-38 cells",11.9 µM
same,EC50,AML-193 cells,18.9 µM
same,EC50,"AN3-CA, AN3 CA cells",> 30 µM
same,EC50,"ASPC1, AsPC-1 cells",13.4 µM
same,EC50,BC-3C cells,8.14 µM
same,EC50,BEN cells,10.5 µM
same,EC50,"BFTC-909, BFTC-909 cells",13.2 µM
same,EC50,BHY cells,12.8 µM
same,EC50,BICR 6 cells,9.82 µM
same,EC50,BICR 16 cells,11.1 µM
same,EC50,BICR 18 cells,> 30 µM
same,EC50,BICR 31 cells,19.6 µM
same,EC50,"BT-16, BT-16 cells",18.3 µM
same,EC50,"BT-474, BT-474 cells",11.4 µM
same,EC50,"BT-549, BT-549 cells",19.4 µM
same,EC50,"C3A, C3A cells",9.64 µM
same,EC50,"CAKI-2, Caki-2 cells",11.3 µM
same,EC50,"CAL-12T, CAL-12T cells",8.27 µM
same,EC50,"CAL-27, CAL 27 cells",12 µM
same,EC50,CAL-29 cells,11.8 µM
same,EC50,"CAL-85-1, CAL-85-1 cells",18.6 µM
same,EC50,"CAL-120, CAL-120 cells",9.09 µM
same,EC50,"CAL-148, CAL-148 cells",9.65 µM
same,EC50,"CAMA-1, CAMA-1 cells",10.9 µM
same,EC50,"CAPAN-1, Capan-1 cells",7.41 µM
same,EC50,"CCRF-HSB-2, CCRF-HSB-2 cells",4.36 µM
same,EC50,"CEM/C1, CEMC1 cells",6.88 µM
same,EC50,"CFPAC-1, CFPAC-1 cells",11.4 µM
same,EC50,CL-14 cells,11.1 µM
same,EC50,CL-34 cells,11.1 µM
same,EC50,"CMK, CMK cells",8.18 µM
same,EC50,"CMK-86, CMK-86 cells",7.36 µM
same,EC50,"COLO 201, COLO 201 cells",12.6 µM
same,EC50,"COLO 205, COLO 205 cells",11.6 µM
same,EC50,"COLO 320, COLO-320 cells",8.29 µM
same,EC50,"COLO 699, COLO-699 cells",10.1 µM
same,EC50,"COLO 704, COLO-704 cells",12.6 µM
same,EC50,"COLO-678, COLO-678 cells",16.6 µM
same,EC50,"COLO-679, COLO-679 cells",13.6 µM
same,EC50,"COLO-741, COLO 741 cells",27.1 µM
same,EC50,"COLO-829, COLO 829 cells",11.6 µM
same,EC50,"COR-L23, COR-L23 cells",8.42 µM
same,EC50,"COR-L105, COR-L105 cells",13.1 µM
same,EC50,"COV362, COV362 cells",10.6 µM
same,EC50,"CW-2, CW-2 cells",9.62 µM
same,EC50,"Calu-6, Calu-6 cells",9.62 µM
same,EC50,"ChaGo-K-1, ChaGo-K-1 cells",12.7 µM
same,EC50,"Ci-1, CI-1 cells",2.87 µM
same,EC50,"DB, DB cells",8.52 µM
same,EC50,"DLD-1, DLD-1 cells",> 30 µM
same,EC50,"DMS-53, DMS 53 cells",17.9 µM
same,EC50,"DMS-273, DMS 273 cells",9.95 µM
same,EC50,"DND41, DND-41 cells",12.6 µM
same,EC50,"DU-4475, DU4475 cells",14.8 µM
same,EC50,"EBC-1, EBC-1 cells",17.8 µM
same,EC50,"EFM-19, EFM-19 cells",13.1 µM
same,EC50,"EFM-192A, EFM-192A cells",6.13 µM
same,EC50,"EOL1, EOL-1 cells",3.43 µM
same,EC50,"FaDu, FaDu cells",10.2 µM
same,EC50,"Fu97, FU97 cells",8.56 µM
same,EC50,"G-401, G-401 cells",7.91 µM
same,EC50,"G-402, G-402 cells",11.3 µM
same,EC50,"GAMG, GAMG cells",> 30 µM
same,EC50,"GDM-1, GDM-1 cells",9.32 µM
same,EC50,"GI-1, GI-1 cells",15.6 µM
same,EC50,"GP2d, GP2d cells",> 30 µM
same,EC50,HARA cells,14.2 µM
same,EC50,"HCC15, HCC-15 cells",23 µM
same,EC50,"HCC44, HCC-44 cells",5.76 µM
same,EC50,"HCC70, HCC70 cells",13.3 µM
same,EC50,"HCC95, HCC-95 cells",15 µM
same,EC50,"HCC827, HCC827 cells",15.5 µM
same,EC50,"HCC1143, HCC1143 cells",11.1 µM
same,EC50,"HCC1187, HCC1187 cells",10.7 µM
same,EC50,"HCC1500, HCC1500 cells",11.7 µM
same,EC50,"HCC1588, HCC-1588 cells",7.61 µM
same,EC50,"HCC1806, HCC1806 cells",22.7 µM
same,EC50,"HCC1954, HCC1954 cells",15.3 µM
same,EC50,HCC-56 cells,18.5 µM
